In patent EP1140984B1, “SELECTIVE INHIBITORS OF MMP-12” (Aventis Pharmaceuticals Inc., priority 1998, dated 2000) one finds Ki data, which are given here for seven compounds.

The structures appear in SMILES notation. pKi: −log10 of the molar value. Where a name gives a salt, the structure may show the parent alone.

One experiment addresses T1, MMP-12 (Homo sapiens, UniProt P39900).
T1 construct: made in house
The experiment is described as follows: Determination of inhibition constant (Ki) for MMP-12 (macrophage metalloelastase), fluorogenic substrate assay, cuvette or microtiter plate. Format: biochemical. The conditions noted are these: substrate Mca-Pro-Leu-Gly-Leu-Dpa-Ala-Arg-NH2, 25°C, pH 7.6, [MMP-12] = 2 nM. As for the experimental part:
MMP-12 (EC 3.4.24.65) was cloned, expressed and purified according to Shapiro, S.D. et al., J Biol. Chem. 268, 23824-23829 (1993). […] Aliquots of MMP-12 were stored at -70C.
The potency of inhibitors of MMP-12 was measured using either quartz cuvettes or microtiter plates. The activity of MMP-12 was measured using a fluorogenic substrate, Mca-Pro-Leu-Gly-Leu-Dpa-Ala-Arg-NH2, Knight, C.G. et al., FEBS Lett. 296, 263-266 (1992), at 25°C in an assay buffer containing 50 mM Tris, pH 7.6, 0.2 M sodium chloride, 50 mM calcium chloride, and 0.02% Brij-35. The increase in fluorescence due to cleavage of Gly-Leu peptide bond by MMP-12 was monitored with a Perkin-Elmer LS50B Fluorimeter (λex 328 nm, λem 393 nm, excitation slit 2.5, emission slit 10) for the cuvette assay and with a Molecular Devices Fmax fluorescence plate reader (λex 320 nm, λem 405 nm) for the microtiter plate assay. Substrate and inhibitor stock solutions were made in N,N-dimethylformamide (DMF) and 0.1% HCl-DMF, respectively.
Ki values were determined using the cuvette method by preparing a series of intermediate inhibitors solutions in 0.1% HCl-DMF and mixing the inhibitor with substrate (final concentration 2 µM) in a quartz cuvette containing 2 ml of assay buffer. MMP-12 was added to start the reaction at a concentration of 2 nM and progress curves were generated. For routine measurement of a Ki value for a reversible competitive inhibitor, the initial rates in the presence of at least four inhibitor concentrations (two concentrations above and two concentrations below the Ki) were measured [S] = 2 µM (<<Km) and [MMP-12] = 2 nM. Under these conditions, the measured Ki,app is close to the true Ki.
Ki values were determined using the microtiter plate method in a manner similar to that described for the cuvette method with some modifications. Four different inhibitor concentrations (50 µl in assay buffer) of each compound were added to separate wells of a microtiter plate and substrate was added (100 µl) to get a final concentration of […]. MMP-12 was added to a final concentration of 2 nM (50 µl) to start the reaction. Cleavage of substrate was recorded every 30 seconds for 30 minutes and progress curves were generated.
The Ki for a competitive inhibitor was calculated using: Vo/Vi = (1+[I]/Ki,app) and Ki = Ki,app/(1+[S]/Km), where Vo is the initial rate in the absence of inhibitor, Vi is the initial rate in the presence of inhibitor at the concentration of [I], [S] is the substrate concentration, and Km is the Michaelis constant. If slow binding is observed (i.e. if the approach to the binding equilibium is slow), the final steady-state rate rather than the initial rate is taken as Vi.

For a further experiment, the target named is T2, MMP-3 (Homo sapiens, UniProt P08254).
T2 construct: The active MMP-3 was obtained by treatment of proMMP-3 with trypsin; endogenous in cells; host or cells: human rheumatoid synovial fibroblasts stimulated with macrophage-conditioned medium
Kind of experiment: Determination of inhibition constant (Ki) for MMP-3, fluorogenic substrate assay. Format: biochemical. To be noted: substrate Mca-Pro-Leu-Gly-Leu-Dpa-Ala-Arg-NH2, 37°C, pH 7.6, [S] = 1 µM, [MMP-3] = 1 nM. The procedure: ProMMP-3 (EC 3.4.24.17; Stromelysin-1) was purified from culture medium of human rheumatoid synovial fibroblasts stimulated with macrophage-conditioned medium according to Okada, Y. et al., J. Biol. Chem. 261, 14245-14255 (1986). The active MMP-3 was obtained by treatment of proMMP-3 with trypsin (5 µg/mL) at 37°C for 30 minutes, followed by addition of soybean trypsin inhibitor (50 µg/mL). Aliquots of the activated MMP-3 were stored at -20°C.
The activated MMP-3 is assayed using a fluorogenic substrate, Mca-Pro-Leu-Gly-Leu-Dpa-Ala-Arg-NH2, Knight, C.G. et al., FEBS Lett. 296, 263-266 (1992), at 37°C in an assay buffer containing 50 mM Tris, pH 7.6, 0.2 M sodium chloride, 50 mM calcium chloride, and 0.02% Brij-35. The increase in fluorescence due to cleavage of Gly-Leu peptide bond by MMP-3 was monitored with Perkin-Elmer LS50B Fluorimeter (λex 328 nm, λem 393 nm, excitation slit 2.5, emission slit 10). Substrate and inhibitor stock solutions were made in DMF and 0.1% HCI-DMF, respectively. For determination of Ki values for MMP-3 inhibitors, a series of intermediate inhibitor solutions were prepared in 0.1% HCl-DMF and 1 or 2 µL of the diluted inhibitor solution was mixed with 1 µL of 2 mM substrate solution in DMF in a quartz cuvette containing 2 mL of assay buffer. The enzyme (10 µL of 0.2 µM MMP-3 dilution in assay buffer) was added at the last to start the reaction. For routine measurement of a Ki value for a reversible, competitive inhibitor, the initial rates in the presence of at least four inhibitor concentrations (two concentrations above Ki and two concentrations below Ki) were measured using [S] = 1 µM (<< Km) and [MMP-3] = 1 nM. Under these conditions, the measured Ki, app is close to true Ki.
The Ki for a competitive inhibitor is calculated using: v0/vi = (1 + [I]/Ki, app) and Ki = Ki, app/(1 + [S]/Km), where v0 is the initial rate in the absence of inhibitor, vi is the initial rate in the presence of inhibitor at the concentration of [I], [S] is the substrate concentration, and Km is the Michaelis constant. If slow binding is observed (i.e. if the approach to the binding equilibrium is slow), the final steady-state rate rather than the initial rate is taken as vi.

T1 sequence (P39900 106-263 limits assumed): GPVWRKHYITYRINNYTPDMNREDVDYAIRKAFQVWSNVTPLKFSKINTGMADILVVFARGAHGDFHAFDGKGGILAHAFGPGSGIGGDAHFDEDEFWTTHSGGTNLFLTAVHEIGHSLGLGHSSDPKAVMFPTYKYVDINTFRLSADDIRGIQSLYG
T2 sequence (P08254 100-477): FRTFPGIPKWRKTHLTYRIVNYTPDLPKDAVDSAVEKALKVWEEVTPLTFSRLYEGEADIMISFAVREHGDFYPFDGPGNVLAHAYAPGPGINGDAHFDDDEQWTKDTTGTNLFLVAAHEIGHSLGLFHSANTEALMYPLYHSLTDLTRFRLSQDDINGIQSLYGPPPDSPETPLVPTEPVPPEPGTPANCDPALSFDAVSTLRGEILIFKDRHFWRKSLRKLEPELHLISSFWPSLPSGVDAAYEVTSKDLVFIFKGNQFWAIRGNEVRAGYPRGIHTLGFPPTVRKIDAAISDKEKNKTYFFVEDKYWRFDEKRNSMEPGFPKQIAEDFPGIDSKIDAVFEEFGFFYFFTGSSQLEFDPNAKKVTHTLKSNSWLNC

As for `CC(C)C[C@H](NC(=O)C(S)C(C)C)C(=O)N[C@@H](Cc1ccccc1)C(=O)O` (stereo in doubt) [Example 3, (S)-2-Mercapto-3-methylbutyroyl-(L)-leucyl-(L)-phenylalanine], the pKi at MMP-12 is 7.85; on MMP-3 it was 5.85.

For the compound `CNC(=O)[C@H](Cc1ccccc1)NC(=O)[C@H](CCc1ccccc1)NC(=O)[C@@H](S)C(C)C` [Example 7, (S)-2-Mercapto-3-methylbutyroyl-(L)-homo-phenylalanyl-(L)-phenylalanine N-methyl amide], the values for the negative-log Ki (pKi) on MMP-12 and at MMP-3 were 9.22 and 8.00, respectively.

As to `CCCC(S)C(=O)N[C@@H](CCc1ccccc1)C(=O)N[C@@H](Cc1ccccc1)C(=O)NC` (stereo partly drawn) [Example 6, (S)-2-Mercaptopentanoyl-(L)-homo-phenylalanyl-(L)-phenylalanine N-methyl amide], the pKi on MMP-12 and at MMP-3 was 7.85 throughout.

As for `CSCC[C@H](NC(=O)C(S)C(C)C)C(=O)N[C@@H](Cc1ccccc1)C(=O)O` (stereo in doubt) [Example 4, (S)-2-Mercapto-3-methylbutyroyl-(L)-methionyl-(L)-phenylalanine], the figures for the negative-log Ki (pKi) on MMP-12 and at MMP-3 were 7.85 and 6.35, respectively.

Regarding `CC(C)C(S)C(=O)N[C@@H](CCCCN)C(=O)N[C@@H](Cc1ccccc1)C(=O)O` (stereo in doubt) [Example 5, (S)-2-Mercapto-3-methylbutyroyl-(L)-lysyl-(L)-phenylalanine trifluoroacetic acid salt], the pKi on MMP-12 was 6.82; on MMP-3 it was 5.81.

Consider `CCCC(S)C(=O)N[C@@H](CCc1ccccc1)C(=O)N[C@@H](Cc1ccccc1)C(=O)O` (some centres unmarked) [Example 1, 2-Mercapto-pentanoyl-(L)-homo-phenylalanyl-(L)-phenylalanine], for which the figures for the pKi on MMP-12 and at MMP-3 were 7.89 and 6.12, respectively.

For `CC(C)[C@H](S)C(=O)N[C@@H](CCc1ccccc1)C(=O)N[C@@H](Cc1ccccc1)C(=O)O` [Example 2, (S)-2-Mercapto-3-methylbutyroyl-(L)-homo-phenylalanyl-(L)-phenylalanine], the negative logarithm of the Ki (pKi) is 8.40 on MMP-12 and 6.44 at MMP-3.

As usually defined, the pKi is −log10 of the Ki, conventionally taken in molar units.
